A short description of the series: wn = mass fraction of the nth substance listed. The conditions noted are these: Wilhelmy plate method.

SMILES strings stand for the structures. ± gives the expanded uncertainty stated by the source.

The source of these data is the NIST ThermoML archive (doi:10.1016/j.jct.2013.10.016).

For `OCCNCCO` [diethanolamine] + O, the surface tension liquid-gas (commonly the force per length acting along the surface) came out at 65.1 ± 2 mN/m (293.2 K, w1 = 0.2); 64.6 ± 2 mN/m (293.2 K, w1 = 0.25); 62.8 ± 2 mN/m (293.2 K, w1 = 0.3); 64.4 ± 2 mN/m (303.2 K, w1 = 0.2); 62.7 ± 2 mN/m (303.2 K, w1 = 0.25); 61.3 ± 2 mN/m (303.2 K, w1 = 0.3). The surface tension liquid-gas reads like this: (313.2 K, w1 = 0.2) 63.9 ± 2 mN/m; (313.2 K, w1 = 0.25) 61.8 ± 2 mN/m; (313.2 K, w1 = 0.3) 60.4 ± 2 mN/m; (323.2 K, w1 = 0.2) 61.8 ± 2 mN/m; (323.2 K, w1 = 0.25) 59.6 ± 2 mN/m; (323.2 K, w1 = 0.3) 58.2 ± 2 mN/m.

Turning to `NCCO` [2-aminoethan-1-ol] + O, the surface tension liquid-gas worked out at 62.6 ± 2 mN/m (293.2 K, w1 = 0.2); 61.2 ± 2 mN/m (293.2 K, w1 = 0.25); 60.3 ± 2 mN/m (293.2 K, w1 = 0.3); 61.8 ± 2 mN/m (303.2 K, w1 = 0.2); 60.6 ± 2 mN/m (303.2 K, w1 = 0.25); 59.5 ± 2 mN/m (303.2 K, w1 = 0.3). Moreover, the surface tension liquid-gas runs as follows: (313.2 K, w1 = 0.2) 60.2 ± 2 mN/m; (313.2 K, w1 = 0.25) 59.2 ± 2 mN/m; (313.2 K, w1 = 0.3) 58 ± 2 mN/m; (323.2 K, w1 = 0.2) 58.7 ± 2 mN/m; (323.2 K, w1 = 0.25) 57.7 ± 2 mN/m; (323.2 K, w1 = 0.3) 56.5 ± 2 mN/m.
